# Data from patent US20010056085A1, “Methods of using vesicant drug formulations” (priority 1996, published 2001).
# Values joined by “and” are separate entries in the source; they are usually repeats but may differ in a detail not shown here. Equal entries are not always repeated. Where two headings read alike, the source gives them in different places.
# Test: Half-life of ADR destruction by UVA light in the presence of test compounds (decrease in absorbance at 480 nm)
# Type: physicochemical
# [1] = UVA light, 100 μM test compound alone
# [2] = UVA light, 100 μM test compound with 0.5 μM riboflavin
Compound,"Half-Life of ADR Destruction, 100 μM Test Compound [1] [min]","Half-Life of ADR Destruction, 100 μM Test Compound and 0.5 μM Riboflavin [2]",also measured
"COc1ccc2cc(CCC(C)=O)ccc2c1 [Nabumetone, 4-(6-Methoxy-2-naphthyl)-butan-2-one, reference compound]",27.4,8.6 min,"Half-Life of ADR Destruction, 100 μM Test Compound and 0.5 μM Riboflavin (UVA light, 100 μM test compound with 0.5 μM riboflavin, listed as 4-(6-Methoxy-2-naphthyl)-butan-2-one (Nabumetone)): 8.60 min"
Coumaryl Glucose,43.0,33.5 min,
"Nc1ccc(C(=O)c2cccc(N)c2)cc1 [3,4′-Diamino-benzophenone]",,15.8 min,
N[C@@H](CSSC[C@H](N)C(=O)O)C(=O)O [Cystine],,150.5 min,
O=C(O)/C=C/c1c[nH]c2ccccc12 [trans-3-Indoleacrylic acid],,6.84 min,
NCc1ccccc1N [2-Amino Benzylamine],,14.3 min,
"CC(=O)c1ccc2c(c1)OCCO2 [1,4-Benzodioxane-6-yl methyl ketone]",43.0,33.4 min,
"Cc1cc2cccc(C)c2[nH]1 [2,7-Dimethyl Indole]",,6.27 min,
"NCCc1ccc(O)c(O)c1 [3,4-Dihydroxy Phenethylamine (Dopamine), 3,4-Dihydroxy Phenethylamine]",,301.0 min,
COc1ccc(CCO)cc1 [4-Methoxy Phenylethyl Alcohol],43.0,5.47 min,
COc1ccc(CCCCO)cc1 [4-(4-Methoxyphenyl)-1-Butanol],43.0,3.46 min,
Cc1ccc(N)cc1CO [3-Amino-6-Methyl Benzyl Alcohol],,16.7 min,
COc1ccc2[nH]cc(C[C@H](N)C(=O)O)c2c1 [5-Methoxy-tryptophan],,21.5 min,
N[C@@H](Cc1c[nH]c2ccc(O)cc12)C(=O)O [5-Hydroxy-tryptophan],,301.0 min,
Nc1ccc(C=CC(=O)O)cc1 [4-Amino Cinnamic Acid],50.2,16.7 min,
"Cc1cc(CC(=O)O)n(C)c1C(=O)c1ccc(Cl)cc1 [Zomepirac, 5-(4-Chlorobenzoyl)-1,4-dimethyl-pyrrole-2-acetic acid, reference compound]",42.0,20.1 min,"Half-Life of ADR Destruction, 100 μM Test Compound (UVA light, 100 μM test compound alone, listed as 5-(4-Chlorobenzoyl)-1,4-dimethyl-pyrrole-2-acetic acid (Zomepirac)): 43.0 min"
COc1ccc2[nH]ccc2c1 [5-Methoxy Indole],,25.1 min and 14.3 min,
"O=C1c2cccc(S(=O)(=O)O)c2C(=O)c2cccc(S(=O)(=O)O)c21 [Anthraquinone-1,5-disulfonic acid]",30.1,23.2 min,
Nc1ccc2cc(S(=O)(=O)O)cc(O)c2c1 [6-Amino-4-hydroxy-2-naphthalenesulfonic acid],,50.2 min,
Nc1ccc(OC(F)(F)F)cc1 [4-(Trifluoromethyoxy) Aniline],,,"Half-Life of ADR Destruction, 100 μM Test Compound and 0.5 μM Riboflavin: 43.0 min"
O=C(O)c1cccc2c1C(=O)c1ccccc1-2 [9-Fluorenone-1-carboxylic acid],43.0,43.0 min,
COc1cccc(O)c1 [3-Methoxy Phenol],43.0,,
COC(=O)c1ccc(N)cc1 [Methyl-4-aminobenzoate],,10.8 min,
"Nc1ccc(C(=O)c2ccc(N)cc2)cc1 [4,4′-Diamino-benzophenone]",,27.4 min,
"O=C1c2ccccc2-c2ccccc21 [Compound 9-Fluorenone, 9-Fluorenone]",,43.0 min,
O=C(O)c1ccc2ccccc2c1 [Naphthalene-2-carboxylic acid],50.2,43.0 min,

Compound,"Half-Life of ADR Destruction, 100 μM Test Compound [1] [min]","Half-Life of ADR Destruction, 100 μM Test Compound and 0.5 μM Riboflavin [2]",also measured
C[S+](C)[O-] [Dimethylsulfoxide],,,"Half-Life of ADR Destruction, Test Compound (UVA light, dimethylsulfoxide 4% = 0.56 M alone): 33.5 min; Half-Life of ADR Destruction, Test Compound and 0.5 μM Riboflavin (UVA light, dimethylsulfoxide 4% = 0.56 M with 0.5 μM riboflavin): 27.4 min; Half-Life of ADR Destruction, Test Compound and 0.5 μM Riboflavin (UVA light, dimethylsulfoxide 40% - 5.6 M with 0.5 μM riboflavin): 10.4 min"
COc1cccc2cc[nH]c12 [7-Methoxy Indole],43.0,7.72 min,
Nc1cccc(C(=O)O)c1 [3-Amino Benzoic Acid],,16.7 min,
"Nc1ncnc2c1ncn2[C@@H]1O[C@H](CO)[C@@H](O)[C@H]1O [Adenine-9-ribose (Adenosine), Adenine-9-ribose, reference compound]",50.2,43.0 min,
Nc1ccc(C[C@H](N)C(=O)O)cc1 [4-Amino Phenylalanine],55.2 ± 7.1,7.65 ± 5.46 min,
O=c1[nH]cnc2nc[nH]c12 [Hypoxanthine],,43.0 min,
"c1cc2c([nH]1)CCCC2 [4,5,6,7-tetrahydroindole]",,14.3 min,
Cc1c(N)cccc1C(=O)O [3-Amino-2-Methyl Benzoic Acid],,23.2 min,
Cc1cccc2[nH]ccc12 [4-Methyl Indole],,18.7 ± 4.0 min,
COc1ccc(O)cc1 [4-Methoxy Phenol],50.2,43.0 min,
O=C(O)CCCc1c[nH]c2ccccc12 [3-Indolebutyric acid],,10.0 min,
"Nc1cc([N+](=O)[O-])cc([N+](=O)[O-])c1 [3,5-Dinitro Aniline]",,,"Half-Life of ADR Destruction, 100 μM Test Compound and 0.5 μM Riboflavin: 75.3 min"
COc1ccc2[nH]cc(CCO)c2c1 [5-Methoxy-3-indoleethanol],33.5,9.12 min,
O=C(O)Cc1ccc(-c2ccccc2)cc1 [4-Phenyl Phenylacetic Acid],43.0,27.4 min,
"COc1ccc2cc(C(=O)CCC(=O)O)c(OC)cc2c1 [3,6-Dimethoxy-γ-oxo-2-naphthalenebutyric acid]",30.1,3.86 min,
Nc1ccc(C(=O)NCC(=O)O)cc1 [p-Amino hippuric acid],50.2,11.1 min,
O=C(O)CCOc1ccc(-c2ccccc2)cc1 [3-(4-Biphenylyloxy) Propionic Acid],43.0,43.0 min,
"COc1ccc(C(=O)c2cccc(C(=O)O)c2)cc1OC [3′,4′-Dimethoxy-3-benzophenonecarboxylic acid]",50.2,43.0 min,
Nc1cccc(CC(=O)O)c1 [3-Amino Phenylacetic acid],,13.7 min,
CCC(=O)c1ccc2cc(OC)ccc2c1 [6-Methoxy-propionaphthone],,,"Half-Life of ADR Destruction, 100 μM Test Compound: 30.1 min; Half-Life of ADR Destruction, 100 μM Test Compound and 0.5 μM Riboflavin: 27.4 min"
O=C(Oc1ccc2[nH]ccc2c1)c1ccccc1 [5-Benzoyloxy Indole],,43.0 min,
O=C(c1ccco1)c1cccs1 [2-Furyl-2-thienyl ketone],7.00,,
Cc1ccc2[nH]cc(C[C@H](N)C(=O)O)c2c1 [5-Methyl-tryptophan],,23.2 min,
COc1cc2ccc(=O)oc2cc1O [7-Hydroxy-6-methoxycoumarin],33.5,33.5 min,
NC(=O)c1ccccc1N [2-Aminobenzamide],,33.5 min,
O=C(O)C(O)Cc1c[nH]c2ccccc12 (stereo not drawn) [3-Indolelactic acid],,6.40 min,
